We go through nine compounds from patent US20240366498A1, “Reducing the Risk of Infection from Bacteria Present in Skin Pores During Surgery” (The Board of Trustees of the Leland Stanford Junior …, priority 2021, published 2024).

What all share (format): cell-based
The test system of test [1] is Cutibacterium acnes strain 2 (BWH-002 25541381). Briefly: Growth of C. acnes strain 2 in RCM with antibacterial agent, optical density. On the procedure: (§1) Seven different strains of Cutibacterium acnes were grown in test tubes in Reinforced Clostridial Medium (RCM). Each strain was divided into different wells of mulita-well plates (96-well and 384-well plates were used). 80 μl was used and a 1:200 dilution from saturated cultures. Either an antibacterial agent or vehicle (as a control) was added to each well. Absorbance was measured and quantified as optical density (OD) as a proxy for cell biomass. The OD was recorded at regular intervals over several hours. […] The OD at 48 hours was estimated by calculating the average OD between 47 and 49 hours, and this value was used for further analyses. OD600 is the OD at 600 nm. The OD is listed in arbitrary units determined by the spectrophotometers. Such OD data was collected for different concentrations of each antibacterial agent. […] The horizontal axis has units of μM (micromoles per liter).

The test system of test [2] is Cutibacterium acnes strain 3 (BWH-003 25505801). The experiment in a line: Growth of C. acnes strain 3 in RCM with antibacterial agent, optical density. On the procedure: as §1
In test [3] the test system is Cutibacterium acnes strain 10 (HM-523 (HL053PA2)). The experiment in a line: Growth of C. acnes strain 10 in RCM with antibacterial agent, optical density. How it is done:
as §1

The subject of test [4] is Cutibacterium acnes strain 12 (HM-539 (HL086PA1)). Briefly: Growth of C. acnes strain 12 in RCM with antibacterial agent, optical density. How it is done: as §1
The subject of test [5] is Cutibacterium acnes strain 13 (HM-552 (HL110PA1)). The experiment in a line: Growth of C. acnes strain 13 in RCM with antibacterial agent, optical density. How it is done:
as §1

In test [6] the test system is Cutibacterium acnes strain 15 (KPL2008). The experiment in a line: Growth of C. acnes strain 15 in RCM with antibacterial agent, optical density. On the procedure: as §1
Test [7] relates to Cutibacterium acnes strain 16 (KPL1847). Briefly: Growth of C. acnes strain 16 in RCM with antibacterial agent, optical density. On the procedure:
as §1

The subject of the next test is Cutibacterium acnes. The experiment in a line: Effect of antibacterial agents on C. acnes, seven strains taken together. The settings on record: across the tested strains. How it is done: Seven different strains of Cutibacterium acnes were grown in test tubes in Reinforced Clostridial Medium (RCM). Each strain was divided into different wells of mulita-well plates (96-well and 384-well plates were used). 80 μl was used and a 1:200 dilution from saturated cultures. Either an antibacterial agent or vehicle (as a control) was added to each well. Absorbance was measured and quantified as optical density (OD) as a proxy for cell biomass. The OD was recorded at regular intervals over several hours. […] The OD at 48 hours was estimated by calculating the average OD between 47 and 49 hours, and this value was used for further analyses. OD600 is the OD at 600 nm. The OD is listed in arbitrary units determined by the spectrophotometers.
Such OD data was collected for different concentrations of each antibacterial agent. […] The horizontal axis has units of μM (micromoles per liter). Next, IC50 values were calculated by assessing when the OD value was about 0.5.

Setting [8] is: strain 2, OD at 48 hours, RCM, read-out: IC50.
The mark [9] stands for this setting: strain 3, OD at 48 hours, RCM, read-out: IC50.
Setting [10] is: strain 10, OD at 48 hours, RCM, read-out: IC50.
Where [11] appears, read: strain 12, OD at 48 hours, RCM, read-out: IC50.
The mark [12] stands for this setting: strain 13, OD at 48 hours, RCM, read-out: IC50.
[13] abbreviates: strain 15, OD at 48 hours, RCM, read-out: IC50.
Where [14] appears, read: strain 16, OD at 48 hours, RCM, read-out: IC50.

Like-named read-outs stand apart in the source and are kept apart here.

For `C[C@@H](O)[C@H]1C(=O)N2C(C(=O)O)=C(S[C@@H]3CN[C@H](C(=O)Nc4cccc(C(=O)O)c4)C3)[C@H](C)[C@H]12` [Ertapenem], the IC50 came out at 0.039 µM in test [1] (setting [8]); 0.16 µM in test [2] (setting [9]); 0.078 µM in test [3] (setting [10]); 0.0098 µM in test [4] (setting [11]); 0.039 µM in test [5] (setting [12]); 0.16 µM in test [6] (setting [13]). The IC50 in test [7] (setting [14]) was 0.31 µM.

As to `Cc1ncc([N+](=O)[O-])n1CCO` [Metronidazole], the IC50 in test [1] (setting [8]) is greater than 5120 µM; in test [2] (setting [9]) it was greater than 5120 µM; in test [3] (setting [10]), greater than 5120 µM; in test [4] (setting [11]), 5120 µM; in test [5] (setting [12]) it was 5120 µM; in test [6] (setting [13]) it was 5120 µM. Besides, in test [7] (setting [14]), the IC50 is greater than 5120 µM.

`NC[C@H]1O[C@H](O[C@H]2[C@H](O)[C@@H](O[C@H]3O[C@H](CO)[C@@H](O)[C@H](N)[C@H]3O)[C@H](N)C[C@@H]2N)[C@H](O)[C@@H](O)[C@@H]1O` [Kanamycin]: the IC50 amounted to 640 µM in test [1] (setting [8]); 80 µM in test [2] (setting [9]); 320 µM in test [3] (setting [10]); 160 µM in test [4] (setting [11]); 320 µM in test [5] (setting [12]); 640 µM in test [6] (setting [13]). The IC50 in test [7] (setting [14]) was 160 µM.

For `CN[C@H](CC(C)C)C(=O)N[C@H]1C(=O)N[C@@H](CC(N)=O)C(=O)N[C@H]2C(=O)N[C@H]3C(=O)N[C@H](C(=O)N[C@H](C(=O)O)c4cc(O)cc(O)c4-c4cc3ccc4O)[C@H](O)c3ccc(c(Cl)c3)Oc3cc2cc(c3O[C@@H]2O[C@H](CO)[C@@H](O)[C@H](O)[C@H]2O[C@H]2C[C@](C)(N)[C@H](O)[C@H](C)O2)Oc2ccc(cc2Cl)[C@H]1O` [Vancomycin], the IC50 in test [1] (48 h) amounted to 0.16 µM; in test [2] (48 h), 0.15 µM; in test [3] (48 h) it was 0.16 µM; in test [4] (48 h), 0.31 µM; in test [5] (48 h) it was 0.16 µM; in test [6] (48 h), 0.31 µM. Inhibition in test [7] (48 h) was half-maximal at 0.31 µM (IC50).

`CO/N=C(\C(=O)N[C@@H]1C(=O)N2C(C(=O)O)=C(CSc3nc(=O)c(=O)[nH]n3C)CS[C@H]12)c1csc(N)n1` [Ceftriaxone]: the IC50 was determined as 0.0097 µM in test [1] (setting [8]); 0.0098 µM in test [2] (setting [9]); 0.0098 µM in test [3] (setting [10]); 0.0098 µM in test [4] (setting [11]); 0.0098 µM in test [5] (setting [12]). Further, in the test with Cutibacterium acnes, the “IC50 values, in words” value is “relatively low IC50 values”.

As for `CO/N=C(\C(=O)N[C@@H]1C(=O)N2C(C(=O)[O-])=C(C[N+]3(C)CCCC3)CS[C@H]12)c1csc(N)n1` [Cefepime], the IC50 was 0.31 µM in test [1] (setting [8]); 2.5 µM in test [2] (setting [9]); 0.31 µM in test [3] (setting [10]); 0.16 µM in test [4] (setting [11]); 0.31 µM in test [5] (setting [12]); 2.5 µM in test [6] (setting [13]). Also, the IC50 in test [7] (setting [14]) was found to be 2.5 µM.

Turning to `CC1(C)S[C@@H]2[C@H](NC(=O)[C@H](N)c3ccc(O)cc3)C(=O)N2[C@H]1C(=O)O` [Amoxicillin], the IC50 in test [1] (setting [8]) came out at 0.078 µM; in test [2] (setting [9]), 0.0098 µM; in test [3] (setting [10]), 0.078 µM; in test [4] (setting [11]) it was 0.039 µM; in test [5] (setting [12]), 0.019 µM; in test [6] (setting [13]), 0.16 µM. In addition, the IC50 in test [7] (setting [14]) stood at 0.31 µM. Besides, the “IC50 values, in words” value in the test with Cutibacterium acnes is on record as “relatively low IC50 values”.

For the compound `O=C(OOC(=O)c1ccccc1)c1ccccc1` [Benzoyl Peroxide], the half-maximal inhibitory concentration (IC50) in test [1] (setting [8]) is 2560 µM; in test [2] (setting [9]), greater than 2560 µM; in test [3] (setting [10]), 1280 µM; in test [4] (setting [11]) it was 2560 µM; in test [5] (setting [12]) it was 640 µM; in test [6] (setting [13]) it was 640 µM. Besides, the IC50 in test [7] (setting [14]) was 640 µM.

As for `OO` [Hydrogen Peroxide], the IC50 in test [1] (setting [8]) is 1280 µM; in test [2] (setting [9]), 2560 µM; in test [3] (setting [10]) it was 2560 µM; in test [4] (setting [11]) it was 1280 µM; in test [5] (setting [12]) it was 640 µM; in test [6] (setting [13]), 2560 µM. In addition, the IC50 in test [7] (setting [14]) amounted to 2560 µM.

A word on the IC50: it is the concentration needed to halve the response being measured.
